Assay results taken from US4503055A, “Derivatives of [4-(piperazin-1-yl-phenyloxymethyl)-1,3-dioxolan-2-ylmethyl]-1H-imidazol es and 1H-1,2,4-triazoles” (Janssen Pharmaceutica, N.V., priority 1981, dated 1985).

Tests used:
Candida albicans [1] = assay: Activity against vaginal candidosis in rats; type: in vivo, Female Wistar rats; details: 336 h, oral, once a day for two days from day of infection, active at the 14th day after infection, read-out: Vaginal candidosis in rats: lowest effective dose in mg/kg orally
Experimental: Female Wistar rats of ±100 g body weight are used. They are ovariectomized and hysterectomized and after three weeks of recovery, 100 μg of oestradiol undecylate in sesame oil is given subcutaneously once a week for 3 consecutive weeks. The thus induced pseudooestrus is controlled by microscopic examination of vaginal smears. Food and water are left available ad libitum. The rats are infected intravaginally with 8.10^5 cells of Candida albicans, grown on Sabouraud broth for 48 hours at 37° C. and diluted with saline. The date of infection varies from day +25 to day +32 after surgical intervention, depending on the appearance of signs of induced pseudooestrus. The drugs under investigation are administered orally once a day for two days starting from the day of infection. For each experiment there are placebo treated controls. The results are assessed by taking vaginal smears with sterile swabs on several days after the infection. The swabs are put into Sabouraud broth in petri-dishes and incubated for 48 hours at 37° C. If no growth of Candida albicans occurs, i.e., when the animals are negative at the end of the experiment, this is due to drug administration because it never happens in placebo treated controls. The table below gives the lowest oral dose of the drug under investigation which is found active at the 14th day after infection.

Candida albicans [2] = assay: Activity against crop candidosis in turkeys; type: in vivo; details: medicated feed for 13 consecutive days from day of infection, crops of 50% of animals completely negative for Candida albicans
Experimental: Turkeys of 14 days old are infected in the crop with 4.10^6 Candida albicans cells, grown on Sabouraud broth for 48 hours at 37° C. and diluted with saline. The volume of the inoculum is 1 ml. The drugs under investigation are premixed in 500 mg of lacton and thereafter admixed in 1000 g of meal without any additives. The concentration of the drug under investigation in the meal is expressed in mg/kg. The animals are given the medicated feed for 13 consecutive days starting on the day of infection. At the end of the experiment all animals are sacrificed. At autopsy the crops are removed, emptied and grinded in an ultra-turrax mixer in 15 ml of sterile saline. Colony counting is done on Sabouraud agar and the results given in the table represents the ED50, i.e., the dose of the drug whereby the crops of 50% of the animals are completely negative for Candida albicans.

With `O=C(CN1CCN(c2ccc(OC[C@H]3CO[C@](Cn4ccnc4)(c4ccc(Cl)cc4Cl)O3)cc2)CC1)Nc1c(Cl)cccc1Cl` (relative stereo) the minimal effective dose (Candida albicans [1]) was 2.5 mg/kg and the “Crop candidosis in turkeys: ED50 in mg/kg feed” value (“Crop candidosis in turkeys: ED50” below) (Candida albicans [2]) was 31 mg/kg feed.

In the case of `Clc1ccc(CN2CCN(c3ccc(OC[C@H]4CO[C@](Cn5ccnc5)(c5ccc(Cl)cc5Cl)O4)cc3)CC2)cc1` (relative stereo), the “Crop candidosis in turkeys: ED50” value (Candida albicans [2]) is reported as less than 31 mg/kg feed.

With `CCOC(=O)COC(=O)N1CCN(c2ccc(OC[C@H]3CO[C@](Cn4ccnc4)(c4ccc(Cl)cc4Cl)O3)cc2)CC1` (relative stereo) the minimal effective dose (Candida albicans [1]) was 2.5 mg/kg and the “Crop candidosis in turkeys: ED50” value (Candida albicans [2]) was 31 mg/kg feed.

In the case of `Cc1ccc(NC(=O)CN2CCN(c3ccc(OC[C@H]4CO[C@](Cn5ccnc5)(c5ccc(Cl)cc5Cl)O4)cc3)CC2)cc1` (relative stereo), the “Crop candidosis in turkeys: ED50” value (Candida albicans [2]) is reported as 16 mg/kg feed.

With `O=C(C=Cc1ccc(Cl)cc1)N1CCN(c2ccc(OC[C@H]3CO[C@](Cn4cncn4)(c4ccc(Cl)cc4Cl)O3)cc2)CC1` the “Crop candidosis in turkeys: ED50” value (Candida albicans [2]) was 16 mg/kg feed.

In the case of `Cc1ccccc1NC(=O)CN1CCN(c2ccc(OC[C@H]3CO[C@](Cn4ccnc4)(c4ccc(Cl)cc4Cl)O3)cc2)CC1` (relative stereo), the minimal effective dose (Candida albicans [1]) is reported as 2.5 mg/kg and the “Crop candidosis in turkeys: ED50” value (Candida albicans [2]) is reported as 16 mg/kg feed.

With `Cc1ccc(S(=O)(=O)N2CCN(c3ccc(OC[C@H]4CO[C@](Cn5cncn5)(c5ccc(Cl)cc5Cl)O4)cc3)CC2)cc1` (relative stereo) the “Crop candidosis in turkeys: ED50” value (Candida albicans [2]) was less than 31 mg/kg feed.
